According to patent publication US20070031480A1, “Enhanced delivery of sphingolipids” (priority 2003, published 2007):

Tests used:
[1] = tested on: MDA435/LCC6 wild-type and MDR-1 gene transfected MDA435/LCC6MDR1 breast cancer cells; test: MTT cytotoxicity assay of free ceramides, 72 hours; assay type: cell-based, human; details: free ceramide, wild-type and MDR1 MDA435/LCC6 cells, not separated
Experimental: (§1) Human estrogen receptor negative MDA435/LCC6 wild-type and MDR-1 gene transfected MDA435/LCC6^MDR1 multidrug resistant breast cancer cell lines were obtained from Dr. Robert Clark, Georgetown University, Washington, D.C. J774 murine macrophage cells were obtained from ATCC (Rockville, Md.). All cells were grown as adherent monolayer cultures in 25-cm^2 Falcon flasks in DMEM supplemented with 10% fetal bovine serum and 1% L-glutamine. Cells were maintained at 37° C. in humidified air with 5% CO2. Cells were sub-cultured weekly using 0.25% trypsin with 1 mM EDTA (MDA435/LCC6) or gentle cell scraping (J774).
Cell suspensions were diluted 1:1 with trypan blue, counted with a hemocytometer and seeded into 96-well microtitre plates at […] in 0.2 ml complete medium. The perimeter wells were not used and contained 0.2 ml sterile water. […] After 72 hours the cell viability was assessed using a conventional 3-(4,5-dimethylthiazol-2-yl)-2,5-diphenyl tetrazolium bromide (MTT) dye reduction assay. […] The formazan dye was measured spectrophotometrically using a Dynex plate reader (570 nm). […] The cytotoxic effect of each treatment was expressed as percent cell viability relative to untreated control cells (% control) and is defined as: [(Abs570 treated cells)/( Abs570 control cells)]×100. […]

[2] = tested on: J774 murine macrophage cells; test: MTT cytotoxicity assay of free ceramide and liposomes, 72 hours; assay type: cell-based; details: liposome concentration corrected for ceramide content
Experimental: as §1
Cell suspensions were diluted 1:1 with trypan blue, counted with a hemocytometer and seeded into 96-well microtitre plates at […] in 0.2 ml complete medium. […] After 72 hours the cell viability was assessed using a conventional 3-(4,5-dimethylthiazol-2-yl)-2,5-diphenyl tetrazolium bromide (MTT) dye reduction assay. […] The formazan dye was measured spectrophotometrically using a Dynex plate reader (570 nm). […] The cytotoxic effect of each treatment was expressed as percent cell viability relative to untreated control cells (% control) and is defined as: [(Abs570 treated cells)/( Abs570 control cells)]×100.
The inventors next determined whether the stable formulation of C16-ceramide into CHEMS liposomes translated into enhanced cytotoxicity in vitro. […]

Compound | IC50 [1] | IC50 [2]
CCCCCCCCCCCCC/C=C/[C@@H](O)[C@H](CO)NC(=O)CCCCCCCCC [C10-ceramide] | ~45 µM | –
CCCCCCCCCCCCC/C=C/[C@@H](O)[C@H](CO)NC(=O)CCCCCCCCCCCCCCC [C16-ceramide] | – | > 100 µM
CCCCCCCCCCCCC/C=C/[C@@H](O)[C@H](CO)NC(=O)CCCCC [C6-ceramide] | – | 14.4 µM
